The results in this text go back to US20260327193A1, “INHIBITORS OF PLASMA KALLIKREIN” (Rezolute, Inc., priority 2022, published 2026).

Each structure is given as a SMILES string.

In data set [1] the target is T1, Plasma Kallikrein (Homo sapiens, UniProt P03952). As to the kind of experiment: Plasma kallikrein activity in pooled human plasma. It is filed as biochemical. More on the design: Plasma Kallikrein activity was also measured in pooled human plasma; from tissue; host or cells: pooled human plasma. To be noted: Z-FR-AMC substrate, activated with 10% Actin FS solution, 10 minutes, read-out: Pooled Human Plasma PKal IC50. As to the method: (§1) Plasma kallikrein protease inhibition assay. Two methods for determining the IC50 of a test compound against Plasma Kallikrein are provided.
Second, Plasma Kallikrein activity was also measured in pooled human plasma. First, a 10% Actin FS solution was prepared in assay buffer. Each test compound was dissolved in DMSO and delivered to the reaction mixture along with Z-FR-AMC substrate and pooled human plasma. The multi-well reaction plate was incubated for five minutes at room temperature. To initiate the reaction, the 10% Actin FS solution was added to each well, and kinetic measurements were taken at Ex/Em at 355/460 nm. The fluorescence signal was recorded every 30 seconds for a total of 10 minutes.

In data set [2] the target is T1, Plasma Kallikrein. As to the kind of experiment: Plasma kallikrein protease inhibition assay, purified enzyme. In kind it is biochemical. Also on record: NS0-derived Gly20-Ala638, with a C-terminal 60-His tag; 60-His (so in the source) (C); purchased R&D Systems 2497-SE; host or cells: Mouse myeloma cell line, NS0. To be noted: 10 μM Z-FR-AMC substrate, 20-minute pre-incubation, pH 8.0/8.5, room temperature, read-out: Purified PKal IC50. The method, then: as §1
In the first method was used a reaction buffer composed of 25 mM Tris-HCl (pH 8.0), 100 mM NaCl (pH 8.5), 0.01% Brij35, and 1% DMSO (final). The enzyme used was Plasma Kallikrein (R&D Systems Cat #2497-SE; Recombinant Human Plasma Kallikrein, expressed in Mouse myeloma cell line, NS0-derived Gly20-Ala638, with a C-terminal 60-His tag. MW=70 kDa).
The enzyme was activated by dilution to 200 μg/mL in activation buffer (100 mM Tris, 10 mM CaCl2, 150 mM NaCl, pH 7.5 (TCN), and then combined with an equal volume of 20 μg/mL thermolysin to form a reaction buffer. Each test compound was then dissolved in DMSO and delivered into the reaction buffer. The reaction was initiated by delivering a substrate solution containing 10 μM Z-FR-AMC (Enzo Cat #P-139; AMC: 7-Amino-4-methylcoumarin) into the reaction well after a 20-minute pre-incubation period.
Measurement was conducted with En Vision (PE) with excitation and emission wavelengths of 355 nm and 460 nm, respectively. […]. The enzyme activities were monitored every 5 minutes as a time-course measurement of the increase in signal from fluorescently labeled peptide substrate for 120 minutes at room temperature.
Data was analyzed by taking slope*(signal/time) of the linear portion of measurements. Slope was calculated using Excel, and curve fits were performed using Prism software.

Data set [3] can be described thus: Caco-2 permeability assay. It is filed as in vitro ADME. The note with it: human, 10 μM test compound, pH 7.4, 37° C., 120 minutes, direction of the value not given, read-out: Caco-2 Perm. As to the method:
Permeability Assay. A permeability study was conducted using Caco-2 cells (ECACC Cat. no. 09042001) seeded on cell inserts plate (Millicell, Cat #PSHT010R^5) at a density of 80,000 cells per well, and the cells were maintained for 18-21 days in culture medium (1×DMEM with 10% FBS, 0.1 mg/mL Penicillin/Streptomycin). The culture medium was changed every alternate day. Prior to the experiments, the integrity of the cellular monolayer was evaluated by measuring the TEER value using a volt ohm meter and STX100C96 electrode. Only monolayers with TEER values greater than 800 ohm·cm^2 in buffer after the first wash were used.
An assay buffer (HBSS with Ca+2 and Mg+2 buffered with 10 mM HEPES and 25 mM D-Glucose, pH-7.4) was used on apical side as well as on basolateral side.
An intermediate stock solution of a test compound was prepared in DMSO at a concentration of 1 mM in DMSO. This stock solution was spiked in the assay buffer to achieve a target test compound concentration of 10 μM. The organic content of final drug preparation was 1.0% v/v. The bidirectional permeability experiment was done in singlet and the sample analysis was done in duplicate.
The cultured cell monolayer was washed twice with assay buffer (0.4 mL and 0.8 mL was added to the apical and basolateral sides, respectively, of the culture plate), and then buffers from both compartments were discarded.
For the apical to basal (AP>BL) experiment, aliquots of 0.4 mL donor solution (assay buffer, pH 7.4 containing test compound) and 0.8 mL of receiver solutions (assay buffer, pH 7.4, only) were added to the apical and basolateral compartments, respectively. For the basal to apical (BL>AP) experiment, aliquots of 0.8 mL donor solution (assay buffer pH-7.4 containing test compound) and 0.4 mL of receiver solutions (assay buffer, pH-7.4) were added to the basolateral and apical compartments, respectively. The plate was then kept in an incubator at 37° C. for 120 minutes.
Control experiments with Propranolol (High Permeability), Atenolol (Low Permeability), Digoxin (High Efflux-Pgp substrate), and Digoxin+Verapamil (Pgp Inhibitor) in both directions (AP>BL and BL>AP) were performed in separate wells on the same experiment day.
After the completion of the transport experiment, the integrity of the cell monolayer was evaluated by measuring the Lucifer Yellow (LY) rejection. To do this, 400 μL of 10 μM LY was added to each well of the filter plate and incubated for 1 hour at 37° C. Subsequently, the samples were collected from the basolateral compartments, and the LY fluorescence was measured using an excitation wavelength of 485 nm and an emission wavelength of 530 nm. The percent LY rejection across the cell monolayer was calculated by measuring fluorescence in the receiver plate (basolateral compartment) compared to theoretical equilibrium standard.
The study samples (collected from apical and basolateral compartments after 120 min incubation) were analyzed by LCMS/MS, following which the Papp of the compound(s) was calculated in both apical to basal and basal to apical directions. Papp=([DBL]×VBL)/(A×t×[DAP]) where: [DBL]=final drug concentration on the basolateral side, VBL=volume of the basolateral compartment, A=surface area of the cell culture, t=total incubation time, and [DAP]=initial drug concentration on the apical side.

One may read the IC50 as the point on the concentration scale where inhibition reaches its midpoint.

T1 sequence (P03952 391-638 limits assumed): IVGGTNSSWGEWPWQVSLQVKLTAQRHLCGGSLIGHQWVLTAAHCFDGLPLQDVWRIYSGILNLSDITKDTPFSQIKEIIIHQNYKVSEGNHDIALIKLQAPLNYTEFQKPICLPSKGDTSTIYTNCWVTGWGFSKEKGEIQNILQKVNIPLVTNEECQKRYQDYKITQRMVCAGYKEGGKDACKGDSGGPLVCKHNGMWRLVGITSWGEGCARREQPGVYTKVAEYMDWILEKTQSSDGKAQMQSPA
T1 sequence (P03952 20-390 partner limits assumed): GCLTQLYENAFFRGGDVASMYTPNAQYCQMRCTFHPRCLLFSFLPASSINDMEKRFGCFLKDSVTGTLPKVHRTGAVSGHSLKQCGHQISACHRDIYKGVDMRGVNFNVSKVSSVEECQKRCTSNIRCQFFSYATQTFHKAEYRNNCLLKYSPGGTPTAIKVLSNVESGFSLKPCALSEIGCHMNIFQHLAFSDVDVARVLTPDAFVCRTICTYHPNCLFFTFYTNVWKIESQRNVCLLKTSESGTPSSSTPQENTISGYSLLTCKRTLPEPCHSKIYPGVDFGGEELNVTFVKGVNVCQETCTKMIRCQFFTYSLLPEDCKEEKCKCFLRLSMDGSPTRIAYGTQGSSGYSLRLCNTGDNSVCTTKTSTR

`COCCc1ccc(Cn2ncc(C(=O)NCc3ccc(C(=N)N)cc3)c2COC)cc1` [Example 87, N-(4-carbamimidoylbenzyl)-1-(4-(2-methoxyethyl)benzyl)-5-(methoxymethyl)-1H-pyrazole-4-carboxamide]: the IC50 on Plasma Kallikrein [1] was below 100 nM; on Plasma Kallikrein [2], 10 to 100 nM. Also, in data set [3], the Papp at 2 h, 10 µM was below 2 ×10⁻⁶ cm/s.
